{"source": "ChEMBL document CHEMBL5331121", "about": "“Preferred Conformation-Guided Discovery of Potent and Orally Active HIF Prolyl Hydroxylase 2 Inhibitors for the Treatment of Anemia” (J Med Chem, 2023)", "key": {"[1]": {"biological_target": "Egl nine homolog 1 (Homo sapiens, UniProt Q9GZT9)", "sequence (Q9GZT9 whole entry, the tested form may be a part)": "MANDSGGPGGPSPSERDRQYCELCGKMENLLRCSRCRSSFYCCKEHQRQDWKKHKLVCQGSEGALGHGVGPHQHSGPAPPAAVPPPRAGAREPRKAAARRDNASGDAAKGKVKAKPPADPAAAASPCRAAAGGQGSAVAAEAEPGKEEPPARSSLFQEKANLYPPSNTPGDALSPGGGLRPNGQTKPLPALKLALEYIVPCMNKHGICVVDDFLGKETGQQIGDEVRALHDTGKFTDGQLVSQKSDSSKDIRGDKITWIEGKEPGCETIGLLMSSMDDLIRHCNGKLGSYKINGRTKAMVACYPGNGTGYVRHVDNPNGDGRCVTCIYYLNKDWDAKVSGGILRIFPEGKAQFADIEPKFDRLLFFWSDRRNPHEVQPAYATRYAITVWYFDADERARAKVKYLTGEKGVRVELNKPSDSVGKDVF", "assay": "Binding affinity to […] PHD2 (181 to 426 residues) (unknown origin) by fluorescence polarization assay"}, "[2]": {"biological_target": "Endothelial PAS domain-containing protein 1 (Homo sapiens) (UniProt Q99814)", "sequence (Q99814 whole entry, the tested form may be a part)": "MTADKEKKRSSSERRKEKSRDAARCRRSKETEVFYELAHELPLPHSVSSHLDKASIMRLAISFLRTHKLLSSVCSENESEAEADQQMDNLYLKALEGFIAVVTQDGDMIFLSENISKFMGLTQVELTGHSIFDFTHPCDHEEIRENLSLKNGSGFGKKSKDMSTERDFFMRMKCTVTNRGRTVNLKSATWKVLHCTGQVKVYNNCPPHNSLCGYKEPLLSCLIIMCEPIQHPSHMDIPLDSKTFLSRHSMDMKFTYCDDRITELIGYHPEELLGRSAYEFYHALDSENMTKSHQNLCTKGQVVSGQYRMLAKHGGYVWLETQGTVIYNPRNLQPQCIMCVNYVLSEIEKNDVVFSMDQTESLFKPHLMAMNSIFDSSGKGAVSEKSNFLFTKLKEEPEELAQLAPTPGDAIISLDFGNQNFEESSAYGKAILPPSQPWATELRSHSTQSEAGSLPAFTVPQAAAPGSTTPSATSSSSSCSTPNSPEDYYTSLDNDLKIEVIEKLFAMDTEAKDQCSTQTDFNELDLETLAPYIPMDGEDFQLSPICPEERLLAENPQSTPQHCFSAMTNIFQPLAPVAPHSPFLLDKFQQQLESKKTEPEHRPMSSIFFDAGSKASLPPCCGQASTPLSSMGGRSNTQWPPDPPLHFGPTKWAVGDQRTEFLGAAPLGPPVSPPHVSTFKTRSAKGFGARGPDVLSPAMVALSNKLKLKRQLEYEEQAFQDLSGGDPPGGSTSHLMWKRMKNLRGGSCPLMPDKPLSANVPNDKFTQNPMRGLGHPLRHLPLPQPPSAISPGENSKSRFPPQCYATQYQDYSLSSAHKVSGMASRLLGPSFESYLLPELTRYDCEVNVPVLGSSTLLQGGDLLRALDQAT", "assay": "Induction of HIF-2alpha stabilization in human Hep3B cells at 20 to 50 uM by Western blotting analysis", "format": "cell-based", "conditions": "dose 20-50 µM"}, "[3]": {"system": "Mus musculus", "assay": "Upregulation of reticulocytes in C57BL/6J mouse at 10 mg/kg, po administered once daily for 3 days", "format": "functional, organism-based", "conditions": "time 3.0 day"}, "[4]": {"biological_target": "Hypoxia-inducible factor 1-alpha (Homo sapiens) (UniProt Q16665)", "sequence (Q16665 whole entry, looked up)": "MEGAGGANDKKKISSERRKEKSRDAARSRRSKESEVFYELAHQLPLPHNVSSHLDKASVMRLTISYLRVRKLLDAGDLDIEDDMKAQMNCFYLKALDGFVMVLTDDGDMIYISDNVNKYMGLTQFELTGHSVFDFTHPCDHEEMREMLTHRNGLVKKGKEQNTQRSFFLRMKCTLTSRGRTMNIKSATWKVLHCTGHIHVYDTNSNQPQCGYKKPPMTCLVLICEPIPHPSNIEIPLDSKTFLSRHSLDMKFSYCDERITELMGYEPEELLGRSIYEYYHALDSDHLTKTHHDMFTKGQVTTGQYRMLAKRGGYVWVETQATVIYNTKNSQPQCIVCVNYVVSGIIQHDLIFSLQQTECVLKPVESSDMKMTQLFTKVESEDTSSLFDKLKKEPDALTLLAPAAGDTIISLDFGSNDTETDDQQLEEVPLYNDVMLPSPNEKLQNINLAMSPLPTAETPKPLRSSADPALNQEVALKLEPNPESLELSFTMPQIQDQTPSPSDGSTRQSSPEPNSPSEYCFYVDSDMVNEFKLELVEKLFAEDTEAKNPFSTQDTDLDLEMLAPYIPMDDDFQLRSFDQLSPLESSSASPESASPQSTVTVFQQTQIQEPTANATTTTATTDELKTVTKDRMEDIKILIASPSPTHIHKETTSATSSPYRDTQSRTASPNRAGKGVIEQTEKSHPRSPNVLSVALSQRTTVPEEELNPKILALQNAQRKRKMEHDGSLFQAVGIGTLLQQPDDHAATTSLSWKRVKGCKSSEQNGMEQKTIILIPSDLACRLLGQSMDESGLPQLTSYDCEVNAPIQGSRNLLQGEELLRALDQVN", "assay": "Induction of HIF-1alpha stabilization in human Hep3B cells at 20 to 50 uM by Western blotting analysis", "format": "cell-based", "conditions": "dose 20-50 µM"}, "[5]": {"system": "Hep 3B2", "assay": "Effect on VEGFA gene expression in human Hep3B cells at 5 to 20 uM incubated for 12 hrs by RT-qPCR analysis", "format": "functional, cell-based", "conditions": "dose 5-20 µM"}, "[6]": {"system": "Hep 3B2", "assay": "Cytotoxicity against human Hep3B cells incubated for 48 hrs by CCK-8 assay", "format": "toxicity, cell-based", "conditions": "hep 3b2, 48 h"}, "[7]": {"assay": "Upregulation of EPO mRNA level in human Hep3B cells assessed as fold increase at 20 uM incubated for 12 hrs by RT-qPCR analysis", "format": "functional, Hep 3B2"}, "[8]": {"system": "Hep 3B2", "assay": "Upregulation of EPO mRNA level in human Hep3B cells incubated for 12 hrs by RT-qPCR analysis", "format": "functional, cell-based", "conditions": "dose 5-20 µM"}, "[9]": {"system": "Erythrocyte", "assay": "Upregulation of reticulocytes in C57BL/6J mouse assessed as increase in RBC at 10 to 50 mg/kg, po administered once daily for 3 days", "format": "functional, organism-based", "conditions": "dose 10-50 mg/kg, time 3.0 day"}}, "note": "Active and inactive are the calls of the source. The rule behind the calls is not given here.", "data": [{"smiles": "O=C(O)CNC(=O)c1ncc(C2CCN(C(=O)c3ccc(Cl)cc3)CC2)cc1O", "values": [{"measurement": "IC50", "setting": "[1]", "value": 34.5, "unit": "nM"}]}, {"smiles": "O=C(O)CNC(=O)c1ncc(C2CCN(C(=O)c3ccccc3Cl)CC2)cc1O", "values": [{"measurement": "IC50", "setting": "[1]", "value": 131, "unit": "nM"}]}, {"smiles": "O=C(O)CNC(=O)c1ncc(C2CCN(C(=O)c3cccc(F)c3)CC2)cc1O", "values": [{"measurement": "IC50", "setting": "[1]", "value": 77.1, "unit": "nM"}]}, {"smiles": "O=C(O)CNC(=O)c1ncc(C2CCN(C(=O)c3cc(F)cc(F)c3)CC2)cc1O", "values": [{"measurement": "IC50", "setting": "[1]", "value": 256, "unit": "nM"}]}, {"smiles": "O=C(O)CNC(=O)c1ncc(C2CCN(C(=O)CNc3ccc(F)cc3)CC2)cc1O", "values": [{"measurement": "IC50", "setting": "[1]", "value": 24.3, "unit": "nM"}]}, {"smiles": "Cc1ccc(NCC(=O)N2CCC(c3cnc(C(=O)NCC(=O)O)c(O)c3)CC2)cc1", "values": [{"measurement": "IC50", "setting": "[1]", "value": 64.5, "unit": "nM"}]}, {"smiles": "O=C(O)CNC(=O)c1ncc(C2CCN(C(=O)c3ccc(OC(F)(F)F)cc3)CC2)cc1O", "values": [{"measurement": "Activity", "setting": "[2]", "value": "Active"}, {"measurement": "Activity", "setting": "[3]", "value": "Active"}, {"measurement": "IC50", "setting": "[1]", "value": 24.6, "unit": "nM"}, {"measurement": "Activity", "setting": "[4]", "value": "Active"}, {"measurement": "Activity", "setting": "[5]", "value": "inactive"}, {"measurement": "Activity", "setting": "[6]", "value": "Non-Toxic"}, {"measurement": "fold change (FC)", "setting": "[7]", "value": 7}, {"measurement": "Activity", "setting": "[8]", "value": "Dose-Dependent Effect"}, {"measurement": "Activity", "setting": "[9]", "value": "Dose-Dependent Effect"}]}]}
